Experimental data as given in patent US8344010B2, “Fused imidazole derivatives as TRPV3 antagonist” (Glenmark Pharmaceuticals S.A., priority 2008, dated 2013).

Biological target: T1, Human TRPV3 (Homo sapiens, UniProt Q8NET8)
T1 construct: expressed in transfected cells; host or cells: CHO cells (selected with G-418)
T1 sequence (Q8NET8 1-790): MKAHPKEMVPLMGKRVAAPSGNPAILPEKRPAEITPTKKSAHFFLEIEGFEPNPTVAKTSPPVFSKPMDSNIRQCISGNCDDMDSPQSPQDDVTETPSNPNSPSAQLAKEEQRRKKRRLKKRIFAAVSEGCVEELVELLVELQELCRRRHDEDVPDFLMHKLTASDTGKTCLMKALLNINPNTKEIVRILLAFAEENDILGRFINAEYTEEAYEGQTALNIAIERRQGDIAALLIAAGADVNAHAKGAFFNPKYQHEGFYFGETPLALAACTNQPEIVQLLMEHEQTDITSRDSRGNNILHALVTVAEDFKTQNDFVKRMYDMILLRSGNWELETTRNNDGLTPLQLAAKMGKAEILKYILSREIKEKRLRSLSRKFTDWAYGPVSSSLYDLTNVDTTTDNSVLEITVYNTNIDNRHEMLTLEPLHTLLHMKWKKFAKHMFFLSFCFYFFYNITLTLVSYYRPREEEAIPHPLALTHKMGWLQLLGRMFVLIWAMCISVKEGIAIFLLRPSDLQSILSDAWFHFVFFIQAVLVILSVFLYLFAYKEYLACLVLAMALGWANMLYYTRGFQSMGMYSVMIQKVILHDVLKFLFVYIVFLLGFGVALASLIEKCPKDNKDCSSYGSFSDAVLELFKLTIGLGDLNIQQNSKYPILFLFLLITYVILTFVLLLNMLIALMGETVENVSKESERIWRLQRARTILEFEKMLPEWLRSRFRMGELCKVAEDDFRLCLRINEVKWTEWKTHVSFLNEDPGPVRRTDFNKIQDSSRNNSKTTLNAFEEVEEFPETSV
Test: 45Calcium uptake assay: inhibition of 2-APB induced cellular uptake of radioactive calcium
Format: cell-based
Details: human TRPV3 expressing CHO cells, 2-APB 500 μM; for inhibition at 1 µM: 1 μM test compound, read-out: Percentage Inhibition (1 μM); for inhibition at 10 µM: 10 μM test compound, read-out: Percentage Inhibition (10 μM)
Description: The illustrative examples of the present invention are screened for TRPV3 activity according to a modified procedure described in Tóth, A., Kedei, N., Wang, Y. and Blumberg, P. M. Life Sciences (2003), 73, 487-498. The screening of the compounds can be carried out by other methods and procedures known to a person skilled in the art. Such screening methods may be found in (a) Hu, H.-Z. et al. J. Biol. Chem. (2004), 279, 35741-35747; (b) Smith, G. D. et al. Nature (2002), 418, 186-190; (c) Peier, A. M. et al. Science (2002), 296, 2046-2049.
Screening for TRPV3 antagonist using the ^45Calcium uptake assay The inhibition of TRPV3 receptor activation was followed as inhibition of 2-aminoethoxydiphenylborate (2-APB) induced cellular uptake of radioactive calcium. Test compounds were dissolved in dimethyl sulfoxide (DMSO) to prepare 20 mM stock solution and then diluted using plain medium with DMEM/F-12 containing 1.8 mM CaCl2 to get desired concentration. Final concentration of DMSO in the reaction was 0.5% (v/v). Human TRPV3 expressing CHO cells were grown in DMEM/F-12 medium with 10% FBS, 1% penicillin-streptomycin solution, 400 μg/ml of G-418. Cells were seeded 24 h prior to the assay in 96 well plates so as to get ˜50,000 cells per well on the day of experiment. Cells were treated with test compounds for 10 minutes followed by addition of 2-APB at a final concentration of 500 μM and 5 μCi/ml^45Ca^+2 for 4 minutes. Cells were washed and lysed using buffer containing 1% Triton X-100, 0.1% deoxycholate and 0.1% SDS. Radioactivity in the lysate was measured in Packardt Top count after addition of liquid scintillant. Concentration response curves were plotted as a % of maximal response obtained in the absence of test antagonist. IC50 value was calculated from concentration response curve by nonlinear regression analysis using GraphPad PRISM software.
Percentage inhibition at concentrations of 1.0 μM and 10.0 μM are given in the table along with IC50 details for selected examples.

| Structure (SMILES) | inhibition at 1 µM [%] | inhibition at 10 µM [%] | IC50 (class symbol) [nM] | IC50 (numeric value) [nM] |
| --- | --- | --- | --- | --- |
| COc1cccc(/C=C/c2nc3cc(OC(F)F)ccc3n2-c2ccc(C#N)cn2)c1OC1CCCC1 [Example 59, 6-{2-[(E)-2-(2-[Cyclopentyloxy]-3-methoxyphenyl)vinyl]-5-(difluoromethoxy)-1H-benzimidazol-1-yl}nicotinonitrile] | 95.8 | 97.9 | 50 to 100 |  |
| COc1cccc(/C=C/c2nc3ccc(F)cc3n2-c2ccc(C#N)cn2)c1OC1CCCC1 [Example 53, 6-{2-[(E)-2-(2-Cyclopentyloxy-3-methoxyphenyl)vinyl]-6-fluoro-1H-benzimidazol-1-yl}nicotinonitrile] | 96 | 98.7 | 100 to 500 |  |
| COc1cccc(/C=C/c2nc3ccccc3n2-c2ccc(Cl)cn2)c1OC1CCCC1 [Example 3, 1-(5-Chloropyridin-2-yl)-2-{(E)-2-[2-(cyclopentyloxy)-3-methoxyphenyl]vinyl}-1H-benzimidazole] | 62.1 | 86.6 | > 500 |  |
| COc1cccc(/C=C/c2nc3ccccc3n2Cc2ccc(C#N)cc2)c1OC1CCCC1 [Example 43, 4-({2-[(E)-2-(2-Cyclopentyloxy-3-methoxyphenyl)vinyl]-1H-benzimidazol-1-yl}methyl)benzonitrile] | 88.8 | 97.5 | 100 to 500 |  |
| COc1cccc(/C=C/c2nc3ccccc3n2-c2ccc(C#N)cc2)c1OCc1ccccc1 [Example 34, 4-{2-[(E)-2-(2-Benzyloxy-3-methoxyphenyl)vinyl]-1H-benzimidazol-1-yl}benzonitrile] | 69.9 | 86.8 | > 500 |  |
| COc1cccc(/C=C/c2nc3ccc(Cl)cc3n2-c2ccc(C#N)cn2)c1OCC(C)C [Example 52, 6-(6-Chloro-2-{(E)-2-[3-methoxy-2-(2-methylpropoxy)phenyl]ethenyl}-1H-benzimidazol-1-yl)pyridine-3-carbonitrile] | 97.7 | 98.4 | 50 to 100 |  |
| COc1cccc(/C=C/c2nc3ccccc3n2-c2ccc(C(F)(F)F)cc2)c1OC1CCCC1 [Example 35, 2-[(E)-2-(2-Cyclopentyloxy-3-methoxyphenyl)vinyl]-1-[4-(trifluoromethyl)phenyl]-1H-benzimidazole] | 54.3 | 77.8 |  |  |
| COc1cccc(/C=C/c2nc3cc(F)c(F)cc3n2-c2ccc(C#N)cn2)c1OC1CCCC1 [Example 68, 6-{2-[(E)-2-(2-Cyclopentyloxy-3-methoxyphenyl)vinyl]-5,6-difluoro-1H-benzimidazol-1-yl}nicotinonitrile] | 95 | 99.1 | 50 to 100 |  |
| COc1cccc(/C=C/c2nc3ccccc3n2-c2ccc(C(F)(F)F)cn2)c1OCc1ccccc1 [Example 28, 2-[(E)-2-(2-Benzyloxy-3-methoxyphenyl)vinyl]-1-[5-(trifluoromethyl)pyridin-2-yl]-1H-benzimidazole] | 77.1 | 92.6 | 100 to 500 |  |
| COC(=O)c1ccc(-n2c(/C=C/c3cccc(OC)c3OC3CCCC3)nc3ccccc32)nc1 [Example 30, Methyl 6-(2-{(E)-2-[2-(Cyclopentyloxy)-3-methoxyphenyl]vinyl}-1H-benzimidazol-1-yl)nicotinate] | 16.4 | 27.5 |  |  |
| COc1ccccc1-n1c(/C=C/c2cccc(OC)c2OC2CCCC2)nc2ccccc21 [Example 32, 2-[(E)-2-(2-Cyclopentyloxy-3-methoxyphenyl)vinyl]-1-(2-methoxyphenyl)-1H-benzimidazole] | 9.07 | 0 |  |  |
| COc1cccc(/C=C/c2nc3ccccc3n2-c2ccc(C#N)cn2)c1OCC1CC1 [Example 12, 6-{2-[(E)-2-(2-[Cyclopropylmethoxy]-3-methoxyphenyl)vinyl]-1H-benzimidazol-1-yl}nicotinonitrile] | 81.4 | 97.7 | 100 to 500 |  |
| COc1cccc(/C=C/c2nc3ccccc3n2-c2ccc(C#N)cn2)c1OCc1c(F)cccc1F [Example 17, 6-(2-{(E)-2-[2-(2,6-Difluorobenzyloxy)-3-methoxyphenyl]vinyl}-1H-benzimidazol-1-yl)nicotinonitrile] | 84.3 | 95.8 | 100 to 500 |  |
| COc1cccc(/C=C/c2nc3ccccc3n2-c2ncccc2C(F)(F)F)c1OC1CCCC1 [Example 24, 2-[(E)-2-(2-Cyclopentyloxy-3-methoxyphenyl)vinyl]-1-[3-(trifluoromethyl)pyridin-2-yl]-1H-benzimidazole] | 84.7 | 98 | > 500 |  |

More lines, now with the values ahead:

| inhibition at 1 µM [%] | inhibition at 10 µM [%] | IC50 (class symbol) [nM] | IC50 (numeric value) [nM] | Structure (SMILES) |
| --- | --- | --- | --- | --- |
| 74.2 | 96.6 | 100 to 500 |  | COc1cccc(/C=C/c2nc3cccnc3n2-c2ccc(C#N)cn2)c1OCC1CC1 [Example 89, 6-{2-[(E)-2-(2-[Cyclopropylmethoxy]-3-methoxyphenyl)vinyl]-3H-imidazo[4,5-b]pyridin-3-yl}nicotinonitrile] |
| 96.7 | 97.7 | < 50 |  | N#Cc1ccc(-n2c(/C=C/c3cccc(OC(F)F)c3OCC3CCC3)nc3cc(F)c(F)cc32)nc1 [Example 83, 6-(2-{(E)-2-[2-(Cyclobutylmethoxy)-3-difluoromethoxyphenyl]vinyl}-5,6-difluoro-1H-benzimidazol-1-yl)nicotinonitrile] |
| 89.5 | 95.8 | > 500 |  | FC(F)Oc1cccc(/C=C/c2nc3cccnc3n2-c2ccc(C(F)(F)F)cc2)c1OCC1CCC1 [Example 99, 2-[(E)-2-(2-Cyclobutylmethoxy-3-difluoromethoxyphenyl)vinyl]-3-[4-(trifluoromethyl)phenyl]-3H-imidazo[4,5-b]pyridine] |
| 93.7 | 96.8 | 50 to 100 | 69.2 | COc1cccc(/C=C/c2nc3cc(F)cc(F)c3n2-c2ccc(C#N)cn2)c1OC1CCCC1 [Example 79, 6-{5,7-Difluoro-2-[(E)-2-(2-[cyclopentyloxy]-3-methoxyphenyl)vinyl]-1H-benzimidazol-1-yl}nicotinonitrile] |
| 90.8 | 95.5 | 100 to 500 |  | COc1cccc(/C=C/c2nc3cc(Cl)c(Cl)cc3n2-c2ccc(C#N)cn2)c1OC1CCCC1 [Example 72, 6-{5,6-Dichloro-2-[(E)-2-(2-cyclopentyloxy-3-methoxyphenyl)vinyl]-1H-benzimidazol-1-yl}nicotinonitrile] |
| 90.7 | 95.7 | < 50 |  | CCCCCOc1c(/C=C/c2nc3c(F)c(F)c(F)cc3n2-c2ccc(C#N)cn2)cccc1OC [Example 81, 6-{2-[(E)-2-(2-pentyloxy-3-methoxyphenyl)vinyl]-4,5,6-trifluoro-1H-benzimidazol-1-yl}nicotinonitrile] |
| 25.1 | 71.1 |  |  | CCCCCOc1c(/C=C/c2nc3ccc[n+]([O-])c3n2-c2ccc(C#N)cn2)cccc1OC [Example 88, 6(2-{(E)-2-[3-methoxy-2-(pentyloxy)phenyl]ethenyl}-4-oxido-3H-imidazo[4,5-b]pyridin-3-yl)pyridine-3-carbonitrile] |
